Data taken from PubChem BioAssay AID179 (DTP/NCI, 2004).
Where “and” joins values, the source holds several entries; their conditions need not be identical. Equal values may be shown once. Calls of active or inactive are those of the source.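 Rule for the calls: active = compounds giving half or more protection of infected cells from virus-caused growth loss, again on retest; inactive = the rest.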

Tested on: CEM cells HIV-1 protection, formazan growth assay
Test: NCI AIDS Antiviral Assay
Conditions: for IC50: measured here: growth of uninfected CEM cells
In short: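 Protection of CEM cells against HIV-1 was scored from cell growth (soluble formazan) across five concentrations, with parallel uninfected cells. Lack of protection may reflect toxicity.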

Row | SMILES | EC50 | IC50 | outcome
1 | O=c1[nH]n(Cc2ccccc2)c2ccc([N+](=O)[O-])cc12 | > 200 µM | 25.7 µM | 
2 | O=C1/C(=C/c2cccc3ccccc23)Cc2ccccc21 | > 200 µM | 97.7 µM | 
3 | O=S(O)CCCCCSSCCCCSSCCCCCS(=O)O |  |  | inactive
4 | COc1cc(C(=O)O)c2c(c1C)OC(=O)c1c(C)cc(O)c(C=O)c1O2 | > 83.2 µM | 36.3 µM | 
5 | CC[C@]1(Cc2ccc(OC)c(OC)c2)C2CC(C(=O)OC)ON2O[C@H](OCc2ccccc2)[C@@H]1OC(C)=O (stereo not given in full) | > 200 µM | 102 µM | 
6 | Cc1ccc(S(=O)(=O)NN=C2CCCCCCCCCCC2)cc1 | > 200 µM | > 200 µM | 
7 | O=C(O)CCC(NC(=O)c1ccc(CNc2nc3ccccc3nc2C(=O)O)cc1)C(=O)O (stereo not given) | > 200 µM | > 200 µM | 
8 | NNC(=O)C1C(O)CCC2CN3CCc4c([nH]c5ccccc45)C3CC21 (stereo not given) |  |  | inactive
9 | C[N+]1(C)C/C(=C\c2ccc(O)cc2)C(=O)/C(=C/c2ccc(O)cc2)C1 | > 77.6 µM | 56.2 µM | 
10 | CC(C)CCCC(C)[C@H]1CC[C@H]2[C@@H]3CC[C@H]4C[C@@H](CCC=C(c5cc(Cl)c(O)c(C(=O)OCc6ccccc6)c5)c5cc(Cl)c(O)c(C(=O)OCc6ccccc6)c5)CC[C@]4(C)[C@H]3CC[C@]12C (stereo not given in full) |  |  | inactive
11 | CC(C)(C)c1n[nH]c(C(C)(C)C)c1N=O | > 200 µM | 97.7 µM | 
12 | CN(C)c1ccc(C=Cc2ccc([N+](=O)[O-])cc2)cc1.[C-]#[O+].[C-]#[O+].[C-]#[O+].[Cr] | > 20 µM | 2.4 µM | 
13 | CCC(C(=O)c1ccccc1)C(CCCC(=O)Nc1c(C)cccc1C)N=O (stereo not given) | > 661 µM | 355 µM | 
14 | CC(=O)OC1CC2CC(=O)CC1N2C (stereo not given) | > 200 µM | > 200 µM | 
15 | CN1C(=O)/C(=C2\SC(=O)N(CN3CCOCC3)C2=O)c2ccccc21 | > 200 µM | 37.2 µM | 
16 | O=C(COc1ccc(OCC(=O)N2C(=O)CC(=O)N(c3ccccc3)C2=S)cc1)N1C(=O)CC(=O)N(c2ccccc2)C1=S | > 141 µM | 75.9 µM | 
17 | O=C1C2=C(SCCS2)C(=O)c2ccccc21 | > 42.7 µM | 0.676 µM | 
18 | N=S(=O)(c1ccccc1)c1ccccc1 |  |  | inactive
19 | CC1=C(O)C(=O)C(C)=C(O)C1=O | > 513 µM | 9.33 µM | 
20 | O=C1NC(Cc2ccc(O)cc2)C(=O)NC1Cc1ccc(O)cc1 (stereo not given) | > 100 µM | > 100 µM | 
21 | Cc1nn(-c2ccc([N+](=O)[O-])cc2)c2c1C(C)(C)C(C#N)=C(N)O2 | > 200 µM | > 200 µM | 
22 | O=[N+]([O-])c1ccccc1S(=O)(=O)c1ccc(Cl)cc1 | 12.3 µM and 20.9 µM | 50.1 µM and 81.3 µM | 

Row | SMILES | EC50 | IC50 | outcome
23 | COc1cc(Nc2cnc3ccc(N)cc3n2)cc(OC)c1OC | > 550 µM |  | 
24 | CS1(C)=NC(=O)C2=C(N=1)c1ccccc1S2(=O)=O | > 47.9 µM | > 47.9 µM | 
25 | COC(=O)NC(S(=O)(=O)O)S(=O)(=O)O |  |  | inactive
26 | N#Cc1c[nH]n2ccnc12 | > 200 µM | > 200 µM | 
27 | COc1c(-c2ccc(F)cc2)oc2c(CC(=O)O)cccc2c1=O | > 200 µM | 162 µM | 
28 | N/C1=C/C(=O)NC(=O)c2c(c3ccccc3oc2=O)C1 | > 200 µM | > 200 µM | 
29 | O=C1CSC(=Nc2ccccc2)N1c1ccc(-n2c(-c3ccc(N=Cc4ccc(Cl)cc4)cc3)nc3ccccc3c2=O)cc1 | > 56.2 µM | > 56.2 µM | 
30 | O=C1CCC2(O)c3ccccc3C2Cc2ccccc21 (stereo not given) | > 200 µM | > 200 µM | 
31 | O=C1Nc2cnc(Cl)nc2Nc2cc(Cl)ccc21 | > 200 µM | > 200 µM | 
32 | CC1(C)O[C@@H](CCl)C[C@H](C#N)O1 | > 200 µM | > 200 µM | 
33 | O=C(Nc1ccccc1[N+](=O)[O-])C(=O)C(C(=O)c1ccccc1-c1ccccc1)C1OC(=O)c2ccccc21 (stereo not given) | > 50.1 µM | 25.7 µM | 
34 | NC(=O)CCCNC(=O)c1ccccc1SC(=O)CCCC[n+]1ccccc1 | 0.646 µM | 16.2 µM | 
35 | C(=Nc1ccccc1C1SCCCS1)c1ccccc1 | > 200 µM | > 200 µM | 
36 | CCSc1nc(=S)n(-c2ccccc2)c(C)c1C(C)=O | > 200 µM | > 200 µM | 
37 | C[n+]1c(-c2ccc(/C=N\Nc3nnc(S)n3/N=C/c3ccc(-c4cn5ccccc5[n+]4C)cc3)cc2)cn2ccccc21 | 66.1 µM | 67.6 µM | 
38 | O=Nc1ccc(C=C2C(=O)C=CC2=O)cc1 | > 200 µM | 10.2 µM | 
39 | S=C(Nc1ccc(Cl)c(Cl)c1)N1c2ccccc2-n2cccc2C1c1cccnc1 (stereo not given) | > 49 µM | 25.1 µM | 
40 | COP(=O)(OC)/C(=C/c1cnc[nH]1)NC=O | > 200 µM | > 200 µM | 
41 | CN1C(=O)C2C=C3CCCCC3=CC2N(C)C1=O (stereo not given) | > 200 µM | > 200 µM | 
42 | C#CCOC(=O)c1ccccc1OC(C)=O | > 200 µM | > 200 µM | 
43 | O=C1c2sccc2[C@H](NC(=O)C(F)(F)F)[C@@H]1Cl | > 200 µM | > 200 µM | 
44 | O=c1c(O)c(-c2cc(O)c(O)c(O)c2)oc2cc(O)ccc12 | > 832 µM | 11.7 µM | 

Row | SMILES | EC50 | IC50 | outcome
45 | Clc1ccc(CCN2CCOCC2)c(Cl)c1 | > 63.1 µM | > 63.1 µM | 
46 | CC1(C)S[C@@H]2[C@H](NC(=O)C3(N)CCCC3)C(=O)N2[C@H]1C(=O)O | > 200 µM | > 200 µM | 
47 | CC(=O)c1cccc(NC(=O)C(=O)Nn2c(N)nnc2N)c1 | > 158 µM | > 158 µM | 
48 | O=c1cn[nH]c2cc(Cl)ccc12 | > 117 µM | > 117 µM | 
49 | [N-]=[N+]=Nc1ccc2c(c1)Sc1ccccc1N2CCCCN1CCN(Cc2ccc(C(=O)c3ccc(CSCC(N)C(=O)O)cc3)cc2)CC1 (stereo not given) | > 200 µM | 32.4 µM | 
50 | O=C(O)C(=O)CC(=O)c1ccc(Cl)cc1 | > 200 µM | > 200 µM | 
51 | N#CNC1=NCCC(=O)N1CCc1c[nH]c2ccccc12 | 70.8 µM | > 200 µM | 
52 | Nc1c(Br)cc2c(c1Br)Cc1cc(Br)ccc1-2 | > 200 µM | > 200 µM | 
53 | O=C(OCCc1ccccc1)c1cc2ccc(O)c(O)c2cn1 | > 8.32 µM | > 8.32 µM | 
54 | C=C(COCO)C(C)=O | > 200 µM | 1.45 µM | 
55 | Cc1[nH]c(=O)[nH]c(=O)c1N(CCF)CCCl | > 1000 µM | 89.1 µM | 
56 | c1ccc2c(c1)NC(C1OC3CCCN3C1C1Nc3ccccc3S1)S2 (stereo not given) | > 200 µM | 107 µM | 
57 | O=C(O)c1cc2ccccc2c(I)c1O | > 200 µM | 105 µM | 
58 | Cc1cc2c(c(=O)o1)C1=S(SC(c3ccccc3)=C1)S2 (stereo not given) | 75.9 µM | > 200 µM | 
59 | Cc1cccc(-c2nnc3s/c(=C\c4ccc5c(c4)OCO5)c(=O)n23)c1 | > 27.5 µM | > 27.5 µM | 
60 | CCCC/C(C)=N/NC(N)=S |  |  | inactive
61 | N#CC(c1ccccc1)N(CCOCCOCCN(C(=O)c1cccc2ccccc12)C(C#N)c1ccccc1)C(=O)c1cccc2ccccc12 (stereo not given) | > 200 µM | 13.2 µM | 
62 | CC1(C)CC(=O)C2=C(C1)NC(SSC1=C(C#N)C(c3ccc(F)cc3)C3=C(CC(C)(C)CC3=O)N1)=C(C#N)C2c1ccc(F)cc1 (stereo not given) | 19.1 µM | 39.8 µM | 
63 | C=CCCC(OCOCCOC)c1cc(C)c(O[Si](C)(C)C(C)(C)C)c(C)c1 (stereo not given) | > 50.1 µM | 29.5 µM | 
64 | CC(=O)NC(C)(C)C1CC=C(C)CC1 (stereo not given) | > 200 µM | > 200 µM | 
65 | CCCCSCCC(N)P(=O)(O)O (stereo not given) | > 200 µM | > 200 µM | 
66 | NNC(=O)C1C2c3ccccc3C(c3ccccc32)C1C(=O)O (stereo not given) | > 200 µM | > 200 µM | 
